Earlier results, collected in US8512972B2, “Crystal of hypoxia inducible factor 1 alpha prolyl hydroxylase” (Akebia Therapeutics, Inc., priority 2006, dated 2013).

What was measured:
[1] = system: HIF protein; settings: administered to rats
[2] = system: HIF protein in HT1080, PC12W and 3T3L1 cells; settings: HT1080, PC12W and 3T3L1 cells in culture
[3] = system: GLUT1, heme oxygenase and nitric oxide synthase; settings: neonatal rat cardiomyocytes

Compound | HIF protein expression in the kidney [1] | induction of HIF protein [2] | expression of GLUT1, heme oxygenase and nitric oxide synthase [3]
N[C@@H](Cn1ccc(=O)c(O)c1)C(=O)O [L-mimosine] | induced HIF protein expression | induce HIF protein | 
COC(=O)CNC(=O)C(=O)OC [dimethyloxalylglycine] |  |  | induced the expression
CCOC(=O)c1ccc(O)c(O)c1 [ethyl-3,4 dihydroxybenzoate] |  | induce HIF protein | induced the expression
